# Test results as given in patent US8637685B2, “Schweinfurthin analogues” (University of Iowa Research Foundation, priority 2008, dated 2014).
# How the values were obtained:
# [1] = system: SF-295 cells; assay: Test A cellular morphology (phalloidin/DAPI staining), SF-295; format: cell-based, human
# Description: (§1) Cell Culture—SF-295 cells were maintained in RPMI 1640 supplemented with 10% fetal calf serum, and penstreptamycin. A-549 cells were maintained in F-12 media with 10% fetal calf serum and penstreptamycin. Both cell lines were incubated at 37° C. and 5% CO2.
# (§2) Cellular Morphology—Cells were plated on sterilized coverslips in 6-well plates and allowed to reach 65% confluency before treatment with indicated compounds. At the conclusion of the treatment interval, cells were rinsed and fixed with 3.7% formaldehyde for 15 minutes. After subsequent rinses in PBS, cells were permeabilized with 0.2% triton X-100 for 4 minutes and rinsed in PBS. Cells were then incubated with 1% BSA for 30 minutes before incubation with phalloidin stain (Molecular Probes, Eugene, Oreg.) for 20 minutes. At the completion of staining interval, cells were rinsed and mounted using Vectashield mounting media containing DAPI (Vector laboratories, Inc., Burlingame, Calif.). Slides were imaged using a Bio-Rad Multi-photon microscope and processed using Image-J software.
# [2] = system: A-549 cells; assay: Test A cellular morphology (phalloidin/DAPI staining), A-549; format: cell-based, human
# Description: as §1, §2
# [3] = Fluorescence properties of target compounds (Table 1); format: physicochemical; details: for Absorbtion Maximum / Emission Maximum / Extinction Coefficient: Concentration 50 uM; for Extinction Coefficient: in M-1 cm-1 (unit assumed)
# Description: This shift to the green region for the fluorescence emission allows cellular studies on these compounds without any interference from autofluroescence.
# [4] = system: SF-295 cell line; assay: Test C MTT assay in schweinfurthin sensitive SF-295 cell line; format: cell-based, human
# Description: (§3) The National Cancer Institute 60 human tumor cell line anti-cancer assay has been used for indicating the schweinfurthin-like activity of various analogues. Additionally, a three pronged approach that allows a more rapid turn around can be used. This three pronged testing scheme involves 1) MTT assay in schweinfurthin sensitive human glioma derived SF-295 cell line; 2) MTT assay in the schweinfurthin resistant human non-small cell lung cancer derived cell line A549; and 3) microscopic observation of cell morphology changes at 24 and 48 hours. Compounds displaying schweinfurthin-like activity show a dramatic change in cell morphology at concentrations consistent with anti-cancer activity. This three pronged testing scheme is a very simple method that has successfully identified compounds with and without schweinfurthin-like activity. Accordingly, in one embodiment the invention provides a method for identifying a compound with schweinfurthin-like activity comprising, subjecting the compound to 1) an MTT assay in a schweinfurthin sensitive human glioma derived SF-295 cell line; 2) an MTT assay in the schweinfurthin resistant human non-small cell lung cancer derived cell line A549; and 3) a microscopic observation of cell morphology changes at one or more preselected time points (e.g. at about 24 or 48 hours).
# [5] = system: A549 cell line; assay: Test C MTT assay in schweinfurthin resistant A549 cell line; format: cell-based, human; details: A549 lung cancer line
# Description: as §3
# [6] = system: SF-295 vs. A549 cell lines; assay: Test C three pronged testing scheme for schweinfurthin-like activity; format: cell-based, human; details: for schweinfurthin-like activity: three pronged scheme: MTT SF-295, MTT A549, morphology
# Description: as §3
# [7] = Compound stability (no method given); format: physicochemical
smiles,measurement,setting,value
COc1cc(C=Cc2cc(O)c(CC=C(C)CCC=C(C)C)c(O)c2)cc2c1OC1(C)CCC(O)C(C)(C)C1C2 (stereo not shown) [3-deoxyschweinfurthin B],cell morphology,"[1]; 500 nM, 24 hours",morphologic characteristics similar to control cells
same,cell morphology,"[1]; 500 nM, 48 hours",characteristic changes in cell morphology
same,cell morphology changes induced by schweinfurthins,[1]; time points beyond 24 hours,a decrease in cell area and a reduction in F-actin
same,cell morphology,"[2]; 500 nM, 24 hours or 48 hours",does not induce a morphologic change
COc1cc(/C=C/c2cc(O)c(/C=C/c3ccc([N+](=O)[O-])cc3)c(O)c2)cc2c1O[C@]1(C)CC[C@@H](O)C(C)(C)[C@H]1C2 [Compound 219],"stokes shift compared with amine compounds 227, 232 and 237",[3],larger stokes shifts than the amine compounds
same,Absorbtion Maximum,[3],426
same,Emission Maximum,[3],593
same,Extinction Coefficient,[3],26500
same,activity relative to standard 3-deoxyschweinfurthin B,[4]; SF-295 cell line,almost identical activity to the standard 3-deoxyschweinfurthin B
same,potency rank among compounds tested,[4]; Test C scheme,most potent of these compounds
same,potency relative to 3-deoxyschweinfurthin B,[5],almost an order of magnitude more potent than 3-deoxyschweinfurthin B
same,schweinfurthin-like activity,[6],still shows the significant drop in activity in the A549 line vs. the SF-295 line
COc1cc(/C=C/c2cc3c(c(OC)c2)O[C@]2(C)CC[C@@H](O)C(C)(C)[C@H]2C3)cc(O)c1/C=C/c1ccc([N+](=O)[O-])cc1 [Compound 225],"stokes shift compared with amine compounds 227, 232 and 237",[3],larger stokes shifts than the amine compounds
same,Absorbtion Maximum,[3],429
same,Emission Maximum,[3],557
same,Extinction Coefficient,[3],17902
same,activity relative to the parent resorcinol,[4]; assay not specified,only slightly diminished activity
same,schweinfurthin-like activity,[6],displayed activity as expected
same,stability relative to the parent resorcinol,[7],much improved stability
COc1cc(/C=C/c2cc3c(c(OC)c2)O[C@]2(C)C[C@@H](O)[C@@H](O)C(C)(C)[C@H]2C3)cc(O)c1/C=C/c1ccc([N+](=O)[O-])cc1 [Compound 235],"stokes shift compared with amine compounds 227, 232 and 237",[3],larger stokes shifts than the amine compounds
COc1cc(/C=C/c2cc3c(c(OC)c2)O[C@]2(C)C[C@@H](O)[C@@H](O)C(C)(C)[C@H]2C3)cc(O)c1/C=C/c1ccc(N)cc1 [Compound 237],potency relative to 3-deoxyschweinfurthin B,[6]; cell line not specified,neither of the amine substituted analogues (227 and 237) were more potent than 3-deoxyschweinfurthin B
same,activity relative to 3-deoxy compound 227,[6]; dihydroxylated A-ring vs. 3-deoxy,not significantly more active than the 3-deoxy compound 227
same,schweinfurthin-like activity,[6],did show all of the hall marks of schweinfurthin like activity
C[C@@H](N)[C@H]1CC[C@H](C(=O)Nc2ccncc2)CC1 [Compound Y-27632],cell morphology,[1]; 10 μM,caused jagged F-actin at the periphery and long slender projections to form
same,cell morphology,[2]; 10 μM,induces ruffled F-actin at the edges of the A-549 cells
